Earlier results, collected in patent US9808427B2, “Swallowable N-acetylcysteine tablets” (ZAMBON S.P.A., priority 2013, dated 2017).

Assays:
[1] = 1200 mg per day (2 tablets of 600 mg)

In the case of `CC(=O)N[C@@H](CS)C(=O)O` [NAC, N-acetylcysteine], the “time to achieve pharmacologically active concentrations in pulmonary tissue and bronchial secretions” value (after taking the drug) is given as “approximately 3 hours”, the “elimination of NAC and its metabolites” value (in vivo) is given as “essentially via the kidneys” and the “absorption in the gastrointestinal tract” value (oral administration, man) is given as “quickly and completely absorbed”. The “efficacy and safety in long-term treatment of COPD” value [1] was “effective and safe”.
